A short description of this data set: in vitro. The conditions noted are these: African green monkey.
Molecule `CC(C)=CCNc1ncnc2c1ncn2[C@@H]1O[C@H](CO)[C@@H](O)[C@H]1O` [riboprine, N^6-(2-Isopentenyl)adenosine] yielded a CC50 of more than 100 µM. In turn, `CC(C)C(=O)OC[C@H]1O[C@@H](n2ccc(NO)nc2=O)[C@H](O)[C@@H]1O` [molnupiravir] came in with a CC50 of more than 100 µM.

In turn, `Nc1ncnc2c1ncn2[C@@H]1O[C@H](CO)[C@@H](O)[C@@H]1O` [vidarabine, Arabinosyladenine] displayed a CC50 of more than 100 µM.

Regarding `COc1nc(N)nc2c1ncn2[C@@H]1O[C@H](CO)[C@@H](O)[C@@H]1O` [nelarabine], the CC50 is more than 100 µM. `CCC(CC)COC(=O)[C@H](C)N[P@](=O)(OC[C@H]1O[C@@](C#N)(c2ccc3c(N)ncnn23)[C@H](O)[C@@H]1O)Oc1ccccc1` [remdesivir] came in with a CC50 of more than 100 µM.

As to `CC(C)Nc1nc2cc(Cl)c(Cl)cc2n1[C@H]1O[C@@H](CO)[C@H](O)[C@@H]1O` [maribavir], the CC50 is more than 100 µM. The molecule `O=c1[nH]cnc2c([C@@H]3N[C@H](CO)[C@@H](O)[C@H]3O)c[nH]c12` [forodesine] returned a CC50 of more than 100 µM. The figure for `OC[C@H]1O[C@@H](n2cnc3c(N[C@@H]4CCOC4)ncnc32)[C@H](O)[C@@H]1O` [tecadenoson] is more than 100 µM.

These data come from paper PMC9631343 (ACS Bio & Med Chem Au, 2022).
